Two substances from patent US12421522B2, “Modulation of transgene expression in plants” (CORTEVA AGRISCIENCE LLC, priority 2016, dated 2025) can be followed below.

Series [1] deals with soybean tissues. The series can be described thus: miRNA expression profiling of miR1512 and miR3522 in soybean tissues. As to conditions: for relative expression level, 3 mm seed: soybean 3 mm seed; for relative expression level, Cotyledons: soybean cotyledons; for relative expression level, Embryo axis: soybean embryo axis; for relative expression level, Flower: soybean flower; for relative expression level, Pods from 5 mm seeds: soybean pods from 5 mm seeds; for relative expression level, Root tip: soybean root tip; for relative expression level, Seed coat: soybean seed coat; for relative expression level, Stem: soybean stem. The protocol: Small RNA Library Construction and Sequencing: Small RNA library construction was carried out using Illumina's TruSeq Small RNA sample preparation kit according to the manufacturer's recommendations. Briefly, RNA 3′ and RNA 5′ adapters were sequentially ligated onto 1 μg of high-quality purified Small RNA sample using truncated T4 RNA Ligase 2 and T4 RNA Ligase respectively. The small RNA fragments were then copied into first strand cDNA using SuperScript II reverse transcriptase. The cDNA was converted into double stranded cDNA (ds cDNA) with PCR using two primers that respectively anneal to the ends of 3′ and 5′ adapters. This process selectively enriches those fragments that have adapter molecules on both ends. The amplified cDNA construct is then purified on a 6% PAGE gel, normalized to 2 nM concentration, denatured with sodium hydroxide, and diluted in hybridization buffer for loading onto a Hiseq flow cell. Cluster generation, primer hybridization and sequencing reactions were carried out according to Illumina's recommended protocol.
Given the variation in expression among different soybean tissues, miR1512 and miR3522 recognition sites were selected to exemplify tissue-specific transgene expression modulation in a dicot plant.
Table 1. miRNA microarray expression profiling of miR1512 and miR3522 in soybean tissues. Numbers represent relative expression levels.

The subject of series [2] is soybean tissues. The series is described as above. The following applies: for relative expression level, 5 mm seed: soybean 5 mm seed; for relative expression level, Hypocotyl: soybean hypocotyl; for relative expression level, Leaf: soybean leaf; for relative expression level, Pod: soybean pod; for relative expression level, Root: soybean root.

As to “miR1512: endogenous soybean micro-RNA, exemplary miR1512 RNA UAACUGAACAUUCUUAGAGCAU (expressed or natural sequence)”, in series [1], the “relative expression level, 3 mm seed” value came to 10427; the “relative expression level, Cotyledons” value is on record as 70; the “relative expression level, Embryo axis” value was 20; the “relative expression level, Flower” value came out at 79. In series [1], the “relative expression level, Pods from 5 mm seeds” value came to 23938; the “relative expression level, Root tip” value was 3118; the “relative expression level, Seed coat” value is 13532; the “relative expression level, Stem” value stood at 15. For the same substance, in series [2] (leaves and other vegetative tissue), the “miRNA expression (in words)” value is listed as “very low expression”. Also, the “miRNA expression (in words)” value in series [2] (root) is on record as “medium expression”. In series [2] (seed and seed coat), the “miRNA expression (in words)” value is reported as “high levels”. Moreover, in series [2], the “relative expression level, 5 mm seed” value is 183; the “relative expression level, Hypocotyl” value is 0; the “relative expression level, Leaf” value is recorded as 0; the “relative expression level, Pod” value came to 1854. The “relative expression level, Root” value in series [2] amounted to 0.
On to “miR3522: endogenous soybean micro-RNA, exemplary miR3522 RNA UGAGACCAAAUGAGCAGCUGA (expressed or natural sequence)”, for which, in series [1], the “relative expression level, 3 mm seed” value was 8958; the “relative expression level, Cotyledons” value is recorded as 26265; the “relative expression level, Embryo axis” value came to 3200; the “relative expression level, Flower” value worked out at 18509. In series [1], the “relative expression level, Pods from 5 mm seeds” value turned out to be 1351; the “relative expression level, Root tip” value is reported as 649; the “relative expression level, Seed coat” value was determined as 2551; the “relative expression level, Stem” value came out at 3180. The “miRNA expression (in words)” value in series [2] (all tissues examined except the root tissue) is recorded as “high or medium levels”. In series [2], the “relative expression level, 5 mm seed” value is given as 30139; the “relative expression level, Hypocotyl” value is 1310; the “relative expression level, Leaf” value is 15350; the “relative expression level, Pod” value worked out at 405. Also, the “relative expression level, Root” value in series [2] is reported as 399.
